As a reminder, the TGI is the concentration at which net growth stops. Low values mean greater sensitivity of the cells, high ones lower sensitivity of the cells. In general, GI50 refers to the concentration that inhibits growth by half.

Some test systems named below: DMS 114 small cell lung; HOP-18 NSCLC; NCI-H23 lung; OVCAR-3 ovarian; RXF 393 renal; SNB-78 CNS; UO-31 renal; RPMI-8226 leukemia; HS 578T breast; MDA-MB-231 breast; T-47D breast.
Holding throughout (assay): DTP human tumour cell line panel, 48 h

Several values for one entry are separate records, joined by “and”; a condition that tells them apart may be missing. Equal values may be shown once.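 Compound exposure: 48 hours, 5 concentrations, 96-well plates. GI50: concentration for 50% inhibition of growth. TGI denotes the concentration required for complete inhibition of growth.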

Turning to `CN(Cc1ccccc1)C1(N(C)Cc2ccccc2)CC1`, the TGI in the test on DMS 114 small cell lung, in the test on HOP-18 NSCLC, with NCI-H23 lung, in the test on OVCAR-3 ovarian, in the test on RXF 393 renal and with SNB-78 CNS was greater than 100 µM each time. Further, the concentration for total growth inhibition (TGI) with UO-31 renal is greater than 100 µM.
For the molecule `CCOC(=O)C1(C(=O)OCC)CC=C(C)CC12C(=O)Nc1ccccc12` (centres undefined), the TGI in the test on DMS 114 small cell lung, in the test on HOP-18 NSCLC, in the test on NCI-H23 lung, in the test with OVCAR-3 ovarian and with RPMI-8226 leukemia was greater than 100 µM in each case.
Take `C=CCC(C)(C(=O)NCCC)C(=O)c1ccccc1O` (centres undefined): the concentration for total growth inhibition (TGI) with DMS 114 small cell lung, with HOP-18 NSCLC, in the test on OVCAR-3 ovarian, in the test with RPMI-8226 leukemia, in the test with RXF 393 renal and in the test on SNB-78 CNS was greater than 100 µM each time. The molecule further displayed a TGI in the test on UO-31 renal greater than 100 µM.
For the molecule `O=C(CC(=O)c1ccccc1NC1=Cc2ccccc2C(=O)C1=O)C(=O)NC1=C(Cl)C(=O)c2ccccc2C1=O`, the TGI in the test on DMS 114 small cell lung turned out to be 4 µM; with HS 578T breast it was 5.64 µM; with MDA-MB-231 breast it was 8.95 µM; in the test on NCI-H23 lung, 6.25 µM; with OVCAR-3 ovarian it was 7.05 µM; in the test with RPMI-8226 leukemia, 14.5 µM. Also, the TGI with RXF 393 renal came to 7.5 µM; with SNB-78 CNS it was 8.79 µM; in the test with T-47D breast it was 30.6 µM; in the test on UO-31 renal, 20.4 µM.
`CCCCCCCCCC(=O)N[C@H]1CCc2cc(OC)c(OC)c(OC)c2-c2ccc(SC)c(=O)cc21`: the TGI was 0.0403 µM in the test on DMS 114 small cell lung; 0.0477 µM and 0.03 µM in the test with OVCAR-3 ovarian; 0.0551 µM with RXF 393 renal; 38.9 µM in the test with SNB-78 CNS; 44.2 µM with UO-31 renal. Further, in the test on UO-31 renal, the GI50 was 0.0168 µM.
In the case of `COC1(OC)c2ccccc2C2(O)c3ccccc3C(=O)C12` (centres undefined), the TGI in the test on DMS 114 small cell lung is greater than 100 µM; in the test with HOP-18 NSCLC it was greater than 100 µM; with NCI-H23 lung, greater than 100 µM; with OVCAR-3 ovarian it was greater than 100 µM; with RPMI-8226 leukemia, 62.5 µM; with RXF 393 renal, greater than 100 µM. For the same molecule, the total growth inhibition concentration (TGI) in the test with SNB-78 CNS was greater than 100 µM; in the test with UO-31 renal, 86.8 µM.
Regarding `CCc1cccc(C(C)CC)c1NC(=O)CC1C(=O)Nc2ccccc2S1=O` (centres undefined), the TGI with DMS 114 small cell lung is greater than 100 µM; in the test with NCI-H23 lung, greater than 100 µM; in the test with OVCAR-3 ovarian, greater than 100 µM; in the test with RPMI-8226 leukemia it was greater than 100 µM; in the test on RXF 393 renal, 46.1 µM; in the test on SNB-78 CNS, 92.9 µM. Moreover, in the test on UO-31 renal, the total growth inhibition concentration (TGI) is greater than 100 µM.
`Cc1cccc(N2C(=O)C(=O)C(c3nc4ccccc4s3)C(=O)C2=O)c1C`: the TGI in the test with DMS 114 small cell lung, in the test with HOP-18 NSCLC, with NCI-H23 lung, in the test with OVCAR-3 ovarian, with RPMI-8226 leukemia and in the test on SNB-78 CNS was greater than 100 µM each time. The same molecule showed a TGI in the test on UO-31 renal greater than 100 µM.
Turning to `COc1ccc(/C=C/C(C(=O)O)C(=O)O)cc1`, the TGI with DMS 114 small cell lung, with NCI-H23 lung, with OVCAR-3 ovarian, in the test on RPMI-8226 leukemia, with SNB-78 CNS and in the test on UO-31 renal was greater than 100 µM in each case.
For the molecule `Cc1ccc(N(C(=O)CC(=O)N2N=C(c3ccccc3)C(N=Nc3ccc([N+](=O)[O-])cc3)C2=O)C(=O)c2ccc(Cl)cc2)cc1` (centres undefined), the total growth inhibition concentration (TGI) is greater than 51.1 µM in the test on DMS 114 small cell lung; greater than 85.6 µM with HOP-18 NSCLC; 28.2 µM with NCI-H23 lung; greater than 91.6 µM with OVCAR-3 ovarian; greater than 59.1 µM in the test on RPMI-8226 leukemia; 10.9 µM with RXF 393 renal. Besides, the concentration for total growth inhibition (TGI) in the test with SNB-78 CNS and with UO-31 renal was greater than 100 µM each time.
`C=CCNC(=S)OCCCCCCCCCC`: the TGI in the test on DMS 114 small cell lung turned out to be 32.1 µM; in the test on HOP-18 NSCLC, 51.8 µM; with NCI-H23 lung, 37.8 µM; in the test on RPMI-8226 leukemia it was 38.9 µM; in the test with RXF 393 renal, 29.1 µM; in the test on SNB-78 CNS, 36.7 µM. The molecule further came in with a TGI in the test with UO-31 renal of 24.8 µM.
For `O=C1CCC(=O)C12CCc1cccc(O)c12`, the TGI in the test with DMS 114 small cell lung, in the test on HOP-18 NSCLC, in the test on NCI-H23 lung, with OVCAR-3 ovarian, with RPMI-8226 leukemia and in the test on RXF 393 renal was greater than 100 µM in each case. In addition, the TGI with SNB-78 CNS and in the test with UO-31 renal was greater than 100 µM each time.
Consider `O=C1NC(=S)NC(=O)C1=Cc1ccc2ccccc2n1`, for which the TGI in the test with DMS 114 small cell lung, with HOP-18 NSCLC, in the test on NCI-H23 lung, with OVCAR-3 ovarian, in the test with RPMI-8226 leukemia and in the test with RXF 393 renal was greater than 100 µM each time. The TGI in the test with SNB-78 CNS and in the test on UO-31 renal was greater than 100 µM throughout.
In the case of `CC1=N/C(=C\c2cccc3ccccc23)C(=O)O1`, the TGI with DMS 114 small cell lung, in the test with HOP-18 NSCLC, in the test on NCI-H23 lung, in the test with RPMI-8226 leukemia, in the test on RXF 393 renal and in the test on SNB-78 CNS was greater than 100 µM throughout. Besides, in the test with UO-31 renal, the TGI is greater than 100 µM.
For the molecule `N#Cc1nc(Nc2ccc([N+](=O)[O-])cc2)sc1N`, the TGI is greater than 100 µM in the test on HOP-18 NSCLC; 20.5 µM in the test on NCI-H23 lung; greater than 69.4 µM in the test on OVCAR-3 ovarian; greater than 59.2 µM with RPMI-8226 leukemia; greater than 93 µM in the test with SNB-78 CNS; greater than 59.7 µM in the test with UO-31 renal.
Take `NC(=S)N/N=C(\C(=O)Nc1ccc(Cl)c(Cl)c1)C1=NN(c2ccccc2)C(c2cccc([N+](=O)[O-])c2)CC1=O` (centres undefined): the TGI in the test with DMS 114 small cell lung is 71.2 µM; with HOP-18 NSCLC, greater than 100 µM; with NCI-H23 lung, 46.9 µM; in the test with OVCAR-3 ovarian it was 51.4 µM; with RPMI-8226 leukemia, 14.4 µM; in the test on SNB-78 CNS, greater than 100 µM. Moreover, the TGI in the test with UO-31 renal is greater than 100 µM.
For the molecule `CC1=C(c2cc(C(=O)Nc3cccc(C(F)(F)F)c3)nc(NC#N)n2)Sc2ccccc2N1`, the concentration for total growth inhibition (TGI) in the test on DMS 114 small cell lung, with HOP-18 NSCLC, with NCI-H23 lung, in the test on OVCAR-3 ovarian, with RPMI-8226 leukemia and with RXF 393 renal was greater than 100 µM each time. The TGI in the test with SNB-78 CNS and in the test with UO-31 renal was greater than 100 µM in each case.
In the case of `O=C1CCC2CCOc3ccc(O)c1c32` (centres undefined), the TGI with DMS 114 small cell lung, in the test on NCI-H23 lung, with OVCAR-3 ovarian, in the test with RPMI-8226 leukemia, in the test on RXF 393 renal and with SNB-78 CNS was greater than 100 µM each time. The TGI in the test with UO-31 renal was greater than 100 µM.

The values are drawn from PubChem BioAssay (NCI).
